According to patent publication US12331046B2, “CTPS1 inhibitors and uses thereof” (Nimbus Clotho, Inc., priority 2020, dated 2025):

Target: human CTPS1 (Homo sapiens (Human), UniProt P17812)
Assay: hCTPS1 biochemical assay (ADP-Glo)
Details: hCTPS1 25 nM, ATP 120 uM, UTP 160 uM, GTP 60 uM, L-Glutamine 100 uM, 25 degrees C

human CTPS1, sequence (P17812 whole entry): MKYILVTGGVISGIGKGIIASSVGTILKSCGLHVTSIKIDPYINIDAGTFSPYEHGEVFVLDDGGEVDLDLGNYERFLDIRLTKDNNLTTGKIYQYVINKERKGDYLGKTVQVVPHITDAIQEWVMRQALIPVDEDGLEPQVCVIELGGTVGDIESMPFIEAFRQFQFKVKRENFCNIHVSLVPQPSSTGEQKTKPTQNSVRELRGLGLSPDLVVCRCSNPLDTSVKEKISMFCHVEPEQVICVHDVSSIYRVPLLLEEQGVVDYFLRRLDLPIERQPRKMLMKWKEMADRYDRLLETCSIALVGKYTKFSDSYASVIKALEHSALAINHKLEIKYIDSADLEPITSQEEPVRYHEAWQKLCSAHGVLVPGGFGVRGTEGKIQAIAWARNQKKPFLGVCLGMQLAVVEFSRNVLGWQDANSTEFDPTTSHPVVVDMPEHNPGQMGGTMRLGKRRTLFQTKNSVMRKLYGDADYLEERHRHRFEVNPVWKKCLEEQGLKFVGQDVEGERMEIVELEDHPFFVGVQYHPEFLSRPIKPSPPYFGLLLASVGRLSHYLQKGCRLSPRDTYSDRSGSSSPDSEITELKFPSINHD

SMILES | IC50 [nM]
CCOc1cncc(-c2ccc(NC(=O)[C@@](F)(CC)c3cc(NS(=O)(=O)C4CC4)ccn3)nc2)n1 [I-258, (R)-2-(4-(cyclopropanesulfonamido)pyridin-2-yl)-N-(5-(6-ethoxypyrazin-2-yl)pyridin-2-yl)-2-fluorobutanamide] | < 100
CCOc1cncc(-c2cnc(C(=O)NC3(c4cc(NS(=O)(=O)C5CC5)ccn4)CCOCC3)s2)n1 [I-132] | < 100
CCOc1cncc(-c2ccc(C(=O)NCc3ccnc(NS(=O)(=O)C4CC4)c3)cc2)n1 [I-17, N-((2-(cyclopropanesulfonamido)pyridin-4-yl)methyl)-4-(6-ethoxypyrazin-2-yl)benzamide] | 100 to 1000
CCOc1cncc(-c2cnc(C(=O)NCc3cc(F)c(F)c(NS(=O)(=O)C4CC4)c3)s2)n1 [I-255, N-[(3-cyclopropanesulfonamido-4,5-difluorophenyl)methyl]-5-(6-ethoxypyrazin-2-yl)-1,3-thiazole-2-carboxamide] | ≥ 1000
CCn1ncc2ncc(-c3cnc(C(=O)NCc4cc(NS(=O)(=O)C5CC5)ccn4)s3)nc21 [I-149, N-((4-(cyclopropanesulfonamido)pyridin-2-yl)methyl)-5-(1-ethyl-1H-pyrazolo[3,4-b]pyrazin-6-yl)thiazole-2-carboxamide] | ≥ 1000
CCOc1cncc(-c2ccc(C(=O)NCc3cc(NS(=O)(=O)CC(F)(F)F)ccn3)cc2)n1 [I-65, 4-(6-ethoxypyrazin-2-yl)-N-((4-((2,2,2-trifluoroethyl)sulfonamido)pyridin-2-yl)methyl)benzamide] | < 100
CCOc1cncc(-n2cc(C(=O)NCc3cc(NS(=O)(=O)C4CC4)ccn3)cn2)n1 [I-244] | 100 to 1000
CCOc1cncc(-c2cnc(C(=O)N[C@@H](c3cc(NS(=O)(=O)C4CC4)ccn3)C3CCN(C)CC3)s2)n1 [I-147, (R)—N-((4-(cyclopropanesulfonamido)pyridin-2-yl)(1-methylpiperidin-4-yl)methyl)-5-(6-ethoxypyrazin-2-yl)thiazole-2-carboxamide] | < 100
CCOc1cncc(-c2ccc3c(c2)CN(C(CC)c2csc(NS(=O)(=O)C4CC4)n2)C3=O)n1 (stereo in doubt) [I-12, (R)—N-(4-(1-(5-(6-ethoxypyrazin-2-yl)-1-oxoisoindolin-2-yl)propyl)thiazol-2-yl)cyclopropanesulfonamide] | < 100
CCOc1cncc(-c2ccc(C(=O)N3CCC[C@@H]3c3ccnc(NS(=O)(=O)C4CC4)n3)c(F)c2)n1 [I-285, N-[4-[(2R)-1-[4-(6-ethoxypyrazin-2-yl)-2-fluorobenzoyl]pyrrolidin-2-yl]pyrimidin-2-yl]cyclopropanesulfonamide] | 100 to 1000
CCOc1cncc(-c2cnc(C(=O)N[C@H](CCN3CCCCC3)c3cc(NS(=O)(=O)C4CC4)ccn3)s2)n1 [I-160, (R)—N-(1-(4-(cyclopropanesulfonamido)pyridin-2-yl)-3-(piperidin-1-yl)propyl)-5-(6-ethoxypyrazin-2-yl)thiazole-2-carboxamide] | 100 to 1000
CCOc1cncc(-c2cnc(C(=O)NC(CCN(C)C)c3cc(NS(=O)(=O)C4CC4)ccn3)s2)n1 (stereo not drawn) [I-201, N-(1-(4-(cyclopropanesulfonamido)pyridin-2-yl)-3-(dimethylamino)propyl)-5-(6-ethoxypyrazin-2-yl)thiazole-2-carboxamide] | < 100
CCOc1cncc(-c2cnc(C(=O)NC(CCN(C)C)c3cccc(NS(=O)(=O)C4CC4)c3)s2)n1 (stereo not drawn) [I-152, N-(1-(3-(cyclopropanesulfonamido)phenyl)-3-(dimethylamino)propyl)-5-(6-ethoxypyrazin-2-yl)thiazole-2-carboxamide] | < 100
CCOc1cncc(-c2cnc(C(=O)N3CCNC[C@@H]3c3ccnc(NS(=O)(=O)C4CC4)n3)s2)n1 [I-167, (R)—N-(4-(1-(5-(6-ethoxypyrazin-2-yl)thiazole-2-carbonyl)piperazin-2-yl)pyrimidin-2-yl)cyclopropanesulfonamide] | ≥ 1000
CCOc1cncc(-c2cnc(C(=O)NC(CCN3CCC3)c3cc(NS(=O)(=O)C4CC4)ccn3)s2)n1 (stereo not drawn) [I-182, N-(3-(azetidin-1-yl)-1-(4-(cyclopropanesulfonamido)pyridin-2-yl)propyl)-5-(6-ethoxypyrazin-2-yl)thiazole-2-carboxamide] | ≥ 1000
CCOc1cncc(-c2cnc(C(=O)NC(CN3CCC3)c3cc(NS(=O)(=O)C4CC4)ccn3)s2)n1 (stereo not drawn) [I-228] | < 100
CCOc1cncc(-c2cnc(C(=O)N[C@H](CN3CC(F)C3)c3cc(NS(=O)(=O)C4CC4)ccn3)s2)n1 (single isomer, unassigned) [I-204] | < 100
CCOc1cncc(-c2cnc(C(=O)N[C@@H](CN3CCNCC3)c3cc(NS(=O)(=O)C4CC4)ccn3)s2)n1 [I-206, (S)—N-(1-(4-(cyclopropanesulfonamido)pyridin-2-yl)-2-(piperazin-1-yl)ethyl)-5-(6-ethoxypyrazin-2-yl)thiazole-2-carboxamide] | < 100
CCOc1cncc(-c2ccc(NC(=O)C(NC(=O)CCOCCNC(=O)OC(C)(C)C)c3csc(NS(=O)(=O)C4CC4)n3)cc2)n1 (stereo not drawn) [Z-7, tert-butyl 2-(3-(1-(2-(cyclopropanesulfonamido)thiazol-4-yl)-2-(4-(6-ethoxypyrazin-2-yl)phenylamino)-2-oxoethylamino)-3-oxopropoxy)ethylcarbamate] | < 100
CCOc1cncc(-c2cnc(C(=O)N[C@H](CN3CCN(C)CC3)c3cc(NS(=O)(=O)C4CC4)ccn3)s2)n1 (single isomer, unassigned) [I-192] | < 100
CCOc1cncc(-c2cnc(C(=O)N[C@@H](C)c3cccc(NS(=O)(=O)C(F)F)c3)s2)n1 [I-273, N-[(1S)-1-[3-(difluoromethanesulfonamido)phenyl]ethyl]-5-(6-ethoxypyrazin-2-yl)-1,3-thiazole-2-carboxamide] | < 100
CCOc1cncc(-c2ccc(C(=O)NCc3nccc(NS(=O)(=O)C4CC4)c3OC)c(F)c2)n1 [I-257, N-[(4-cyclopropanesulfonamido-3-methoxypyridin-2-yl)methyl]-4-(6-ethoxypyrazin-2-yl)-2-fluorobenzamide] | < 100
O=C(NC1(c2csc(NS(=O)(=O)C3CC3)n2)CC1)c1ccc2c[n+]([O-])ccc2c1 [I-11, 6-(1-(2-(cyclopropanesulfonamido)thiazol-4-yl)cyclopropylcarbamoyl)isoquinoline 2-oxide] | ≥ 1000
CCOc1cncc(-c2cnc(C(=O)N[C@H](CN3CCC3)c3cc(NS(=O)(=O)C4CC4)ccn3)s2)n1 (single isomer, unassigned) [I-222] | < 100
CCOc1cncc(-c2cnc(C(=O)NC(c3cc(NS(=O)(=O)C4CC4)ccn3)C3CCN(C)CC3)s2)n1 (stereo not drawn) [I-146, N-((4-(cydopropanesulfonamido)pyridin-2-yl)(1-methylpiperidin-4-yl)methyl)-5-(6-ethoxypyrazin-2-yl)thiazole-2-carboxamide] | < 100
CCOc1cncc(-c2ccc(C(=O)NC3(c4cccc(NS(=O)(=O)C(F)F)c4)CC3)c(F)c2)n1 [I-267, N-[1-[3-(difluoromethanesulfonamido)phenyl]cyclopropyl]-4-(6-ethoxypyrazin-2-yl)-2-fluorobenzamide] | < 100
Cc1nc(C(=O)NCc2cc(NS(=O)(=O)C3CC3)ccn2)cnc1N1CCC[C@@H](C(F)(F)F)C1 [I-55] | 100 to 1000
